# In patent US20120202690A1, “HERBICIDAL COMPOUNDS” (SYNGENTA LIMITED, priority 2009, published 2012):
# How the values were obtained:
# Assay type in all cases: in vivo
# [1] = system: Ipomoea hederaceae (IPOHE); experiment: Post-emergence biological efficacy, glasshouse, 500 or 1000 g/ha, evaluated after 13 days (100=total damage to plant; 0=no damage to plant); conditions: Ipomoea, 312 h, rate 1,000 g/ha, read-out: Percentage damage caused to weed species, post-emergence, IPOHE
# Procedure: (§1) Seeds of Alopecurus myosuroides (ALOMY), Setaria faberi (SETFA), Echinochloa […]), Solanum nigrum (SOLNI), Amaranthus retroflexus (AMARE) and Ipomoea hederaceae (IPOHE) were sown in standard soil in pots. […] The test plants were then grown on under controlled conditions in a glasshouse (at 24/16° C., day/night; 14 hours light; 65% humidity) and watered twice daily. […]
# Solanum nigrum (SOLNI) [2] = experiment: as above; conditions: Solanum nigrum, 312 h, rate 1,000 g/ha, read-out: Percentage damage caused to weed species, post-emergence, SOLNI
# Procedure: as §1
# [3] = system: Echinochloa crusgaffi (ECHCG); experiment: as above; conditions: Echinochloa, 312 h, rate 1,000 g/ha, read-out: Percentage damage caused to weed species, post-emergence, ECHCG
# Procedure: as §1
# [4] = system: Amaranthus retroflexus (AMARE); experiment: as above; conditions: Amaranthus retroflexus, 312 h, rate 1,000 g/ha, read-out: Percentage damage caused to weed species, post-emergence, AMARE
# Procedure: as §1
# [5] = system: Alopecurus myosuroides (ALOMY); experiment: as above; conditions: Alopecurus myosuroides, 312 h, rate 1,000 g/ha, read-out: Percentage damage caused to weed species, post-emergence, ALOMY
# Procedure: as §1
# Setaria faberi (SETFA) [6] = experiment: as above; conditions: Setaria faberi, 312 h, rate 1,000 g/ha, read-out: Percentage damage caused to weed species, post-emergence, SETFA
# Procedure: as §1
# [7] = system: Echinochloa crus-galli (ECHCG); experiment: Pre-emergence biological efficacy, glasshouse, 1000 g/ha, evaluated after 13 days (100=total damage to plant; 0=no damage to plant); conditions: Echinochloa crus-galli, 312 h, rate 1,000 g/ha, read-out: Percentage damage caused to weed species, pre-emergence, ECHCG
# Procedure: (§2) Seeds of Alopecurus myosuroides (ALOMY), Setaria faberi (SETFA), Echinochloa crus-galli (ECHCG), Solanum nigrum (SOLNI), Amaranthus retroflexus (AMARE) and Ipomoea hederaceae (IPOHE) were sown in standard soil in pots. […] The test plants were then grown under controlled conditions in the glasshouse (at 24/16° C., day/night; 14 hours light; 65% humidity) and watered twice daily. […]
# [8] = system: Ipomoea hederaceae (IPOHE); experiment: as above; conditions: Ipomoea, 312 h, rate 1,000 g/ha, read-out: Percentage damage caused to weed species, pre-emergence, IPOHE
# Procedure: as §2
# Solanum nigrum (SOLNI) [9] = experiment: as above; conditions: Solanum nigrum, 312 h, rate 1,000 g/ha, read-out: Percentage damage caused to weed species, pre-emergence, SOLNI
# Procedure: as §2
# [10] = system: Amaranthus retroflexus (AMARE); experiment: as above; conditions: Amaranthus retroflexus, 312 h, rate 1,000 g/ha, read-out: Percentage damage caused to weed species, pre-emergence, AMARE
# Procedure: as §2
# [11] = system: Alopecurus myosuroides (ALOMY); experiment: as above; conditions: Alopecurus myosuroides, 312 h, rate 1,000 g/ha, read-out: Percentage damage caused to weed species, pre-emergence, ALOMY
# Procedure: as §2
# Setaria faberi (SETFA) [12] = experiment: as above; conditions: Setaria faberi, 312 h, rate 1,000 g/ha, read-out: Percentage damage caused to weed species, pre-emergence, SETFA
# Procedure: as §2
Compound,pest or weed control at 1000 g/ha [1] [%],pest or weed control at 1000 g/ha (Solanum nigrum (SOLNI) [2]) [%],pest or weed control at 1000 g/ha [3] [%],pest or weed control at 1000 g/ha [4] [%],pest or weed control at 1000 g/ha [5] [%],pest or weed control at 1000 g/ha (Setaria faberi (SETFA) [6]) [%],pest or weed control at 1000 g/ha [7] [%],pest or weed control at 1000 g/ha [8] [%],pest or weed control at 1000 g/ha (Solanum nigrum (SOLNI) [9]) [%],pest or weed control at 1000 g/ha [10] [%],pest or weed control at 1000 g/ha [11] [%],pest or weed control at 1000 g/ha (Setaria faberi (SETFA) [12]) [%]
COc1c(Cl)ccc(-c2nc(C(=O)O)c3cc(C)[nH]c3n2)c1F [Compound 1-65],60,60,40,40,0,10,0,0,0,0,0,0
"COC(=O)c1nc(-c2ccc(Cl)c(OC)c2F)nc2[nH]c(C)cc12 [Compound 1-66, 2-(4-chloro-2-fluoro-3-methoxyphenyl)-4-methoxycarbonyl-6-methyl-7H-pyrrolo[2,3-d]pyrimidine]",80,100,80,100,80,80,40,90,100,100,20,70
"COC(=O)c1nc(-c2ccc(Cl)c(OC)c2F)nc2[nH]c(C)c(C)c12 [Compound 1-68, 2-(4-Chloro-2-fluoro-3-methoxyphenyl)-5,6-dimethyl-4-methoxycarbonyl-7H-pyrrolo[2,3-d]pyrimidine]",60,30,10,10,0,0,0,0,0,0,0,0
"CCOC(=O)c1nc(-c2ccc(Cl)c(OC)c2F)nc2[nH]cc(C)c12 [Compound 1-75, 2-(4-Chloro-2-fluoro-3-methoxyphenyl)-4-ethoxycarbonyl-5-methyl-7H-pyrrolo[2,3-d]pyrimidine]",70,70,0,40,0,0,0,0,0,0,0,0
"CCCCCCCCOC(=O)c1nc(-c2ccc(Cl)c(OC)c2F)nc2[nH]cc(C)c12 [Compound 1-77, 2-(4-Chloro-2-fluoro-3-methoxyphenyl)-5-methyl-4-(n-octyloxycarbonyl)-7H-pyrrolo[2,3-d]pyrimidine]",40,70,0,10,0,10,0,0,10,0,0,10
"COc1c(Cl)ccc(-c2nc(C(=O)OC(C)C)c3c(C)c[nH]c3n2)c1F [Compound 1-78, 2-(4-Chloro-2-fluoro-3-methoxyphenyl)-4-isopropoxycarbonyl-5-methyl-7H-pyrrolo[2,3-d]pyrimidine]",70,60,0,0,0,0,0,20,40,50,0,0
"CCCCCC(C)OC(=O)c1nc(-c2ccc(Cl)c(OC)c2F)nc2[nH]cc(C)c12 (stereo not drawn) [Compound 1-79, 2-(4-Chloro-2-fluoro-3-methoxyphenyl)-4-(hept-2-yloxycarbonyl)-5-methyl-7H-pyrrolo[2,3-d]pyrimidine]",20,10,0,10,0,0,0,0,0,0,0,0
"C=CCOC(=O)c1nc(-c2ccc(Cl)c(OC)c2F)nc2[nH]cc(C)c12 [Compound 1-80, 2-(4-Chloro-2-fluoro-3-methoxyphenyl)-5-methyl-4-(prop-2-enyloxycarbonyl)-7H-pyrrolo[2,3-d]pyrimidine]",40,80,10,60,0,0,0,0,0,0,0,0
"CCCCOCCOC(=O)c1nc(-c2ccc(Cl)c(OC)c2F)nc2[nH]cc(C)c12 [Compound 1-83, 4-[(2-n-Butoxy)-ethoxycarbonyl]-2-(4-chloro-2-fluoro-3-methoxyphenyl)-5-methy-7H-pyrrolo[2,3-d]pyrimidine]",40,70,10,70,0,10,0,20,30,40,0,0
"CCCCOCC(C)OC(=O)c1nc(-c2ccc(Cl)c(OC)c2F)nc2[nH]cc(C)c12 (stereo not drawn) [Compound 1-84, 4-[(1-n-Butoxy)-prop-2-yloxycarbonyl]-2-(4-chloro-2-fluoro-3-methoxyphenyl)-5-methyl-7H-pyrrolo[2,3-d]pyrimidne]",40,70,0,60,10,10,10,70,40,20,10,10
